Entries after “also recorded” stand apart in the source; their conditions may differ. Where two headings read alike, the source gives them in different places.
Assays:
[1] = Solubilisation of melatonin with Captisol, with or without PEG, in different vehicles; type: physicochemical; settings: Captisol solutions in WFI, glucose 10% solution or phosphate buffer
Procedure: The first set of experiments was aimed to assess the possibility to solubilise melatonin with different quantity of sulfobutylether-β-cyclodextrin (Captisol™). The test was performed by the addition of melatonin. In the solution containing the Captisol at different concentrations up to presence of undissolved material on the bottom; the solution was filtered and analysed. These tests were performed with three different vehicles: water for injection (WFI), glucose 10% solution and phosphate buffer. In a second set of experiments, PEG with different molecular weights (PEG 300 and PEG 400) was added to verify the possibility to reduce the amount of Captisol used for the dissolution. The results of the first set of experiments, were obtained measuring the assay in formulation at the higher solubility limits having on the bottom some undissolved particles. […] Captisol concentration of 5% was identified as a suitable one, and confirmed by the other results.

[2] = Plasma melatonin levels in piglets (direct radioimmunoassay); type: in vivo; settings: melatonin-treated piglets; therapeutic range from Robertson et al. 2013
newborn piglets = settings: intravenous 5 mg/kg/h over six hours (30 mg/kg), 10 minutes after resuscitation; cited from earlier work
[3] = test system: piglet model of neonatal asphyxia; settings: for NTP/epp (whole forebrain, 9.4T MRS): 24h after hypoxia-ischaemia, melatonin 15 mg/kg i.v. over 6h at 2h and 26h plus cooling, p=0.038; for cell death (TUNEL positive cells) in the sensorimotor cortex: p<0.003, p=0.003 (Fig. 4)
Procedure: Objective: To assess neuroprotection of intravenous melatonin (15 mg/kg) infused slowly over 6h (2.5 mg/kg/h) initiated 2 h after hypoxia-ischaemia in a piglet model of neonatal asphyxia (Fig. 1). Primary outcome measures were TUNEL immuno-labelling of cell death over 9 brain regions (Fig. 2). Secondary outcomes were amplitude-integrated electroencephalography(aEEG) recovery, and magnetic resonance spectroscopy (MRS) biomarkers (NTP/epp and lactate/N acetyl aspartate).
During hypoxia-ischemia the β-NTP peak height was continuously monitored using in-house Matlab (Mathworks) software. At the point at which β-NTP had fallen to 50% of its baseline value, FiO2 was increased to 9%. […] The head was immobilized in a stereotactic frame for MRS acquisition. […] After surgical preparation, multichannel six-lead EEG monitoring (Nicolet, Care Fusion, Wisconsin, USA) was acquired at baseline and throughout the periods between MRS data acquisitions. Filtered amplitude-integrated EEG recordings were classified according to the pattern classification. A score of 0 was flat trace; 1, continuous low voltage; 2, burst suppression; 3, discontinuous normal voltage; and 4, continuous normal voltage, at baseline and then every hour after hypoxia-ischemia. […] Blood samples were collected in lithium/heparin tubes and centrifuged immediately after collection. Plasma was separated and then stored at - 20°C before analysis. Melatonin was routinely measured by direct radioimmunoassay.

[4] = test system: rat organotypic hippocampal slice cultures; assay: Oxygen-glucose deprivation (OGD) in organotypic hippocampal slice cultures, cell death by propidium iodide incorporation; type: cell-based; settings: for Cell death, estimated by propidium iodide incorporation, induced by OGD: OGD alone 90.8 ± 7.6%
From the text: Concentration-response studies were aimed at detecting the range of concentration of melatonin resulting in neuroprotection against oxygen-glucose deprivation (OGD), an experimental model simulating hypoxia-ischemia and reperfusion. Ischemia was simulated in vitro by anoxia combined with a glucose-free media (OGD) in rat organotypic hippocampal slice cultures.

COc1ccc2[nH]cc(CCNC(C)=O)c2c1 [melatonin, N-[2-(5-Methoxy-1H-indol-3-yl)ethyl] acetamide]
influence of glucose or buffer as vehicle on solubility [1]: does not influence the solubility
plasma levels [2]: within the expected therapeutic range
hypothermic neuroprotection (newborn piglets): increases hypothermic neuroprotection
3T MRS: NTP/epp and PCr/Pi in whole forebrain, Lac/NAA in thalamus and white matter ([3]; 24 and 48h after hypoxia-ischaemia): no difference in any ratio
NTP/epp (whole forebrain, 9.4T MRS) ([3]; versus vehicle): ameliorated the NTP/ePP decline
NTP/epp (whole forebrain, 9.4T MRS) ([3]; versus vehicle, listed as Melatonin): higher
9.4T MRS: NTP/epp and PCr/Pi in whole forebrain, Lac/NAA in thalamus and white matter ([3]; baseline, 24 and 48h after hypoxia-ischaemia, melatonin 5 and 15 mg/kg groups versus vehicle, apart from 24h NTP/epp): no difference
group mean hourly aEEG scores ([3]; between groups at any time point): no difference
brain protection ([3]; melatonin 5 mg/kg/24h i.v. over 6h started 2h after hypoxia-ischaemia plus cooling): no protection
cell death (TUNEL positive cells) in the sensorimotor cortex ([3]; melatonin 15 mg/kg/24h i.v. over 6h started 2h after hypoxia-ischaemia plus cooling, versus vehicle, 48h): significant protection; also recorded: significant reduction in TUNEL positive cells
cell death (TUNEL positive cells) in the sensorimotor cortex ([3]; melatonin 15 mg/kg/24h i.v. over 6h started 2h after hypoxia-ischaemia plus cooling, versus vehicle, 48h, listed as Melatonin): reduced cell death
cell death (TUNEL positive cells) across the whole brain ([3]; melatonin 15 mg/kg/24h i.v. over 6h started 2h after hypoxia-ischaemia plus cooling, versus vehicle, 48h, p=0.068, p=0.069 (Fig. 4)): trend of reduced cell death; also recorded: trend to overall brain reduced TUNEL positive cells; also recorded: trend towards reduced TUNEL positive cells
physiological parameters monitored, including mean arterial pressure and inotrope use ([3]; piglets, melatonin i.v. infusion plus cooling): did not affect
Cell death, estimated by propidium iodide incorporation, induced by OGD ([4]; 3 µM melatonin): 57.6 ± 6.9%
Cell death, estimated by propidium iodide incorporation, induced by OGD ([4]; 10 µM melatonin): 60.9 ± 7.4%
Cell death, estimated by propidium iodide incorporation, induced by OGD ([4]; 25 µM melatonin): 47.3 ± 3.8%
Cell death, estimated by propidium iodide incorporation, induced by OGD ([4]; 50 µM melatonin): 38.9 ± 4.2%
statistical analysis of the effect on OGD-induced cell death ([4]; all doses tested with the exception of 1 uM, p<0.01 Dunnet's test after ANOVA): significant effect
reduction of OGD-induced cell death ([4]; hippocampal slice cultures of neonatal rats, 1-50 µM): concentration-dependent manner

From EP3595655B1, “THERAPEUTIC DOSAGE AND REGIMEN FOR MELATONIN” (Chiesi Farmaceutici S.p.A., priority 2017, dated 2018)
